Among the test systems are A498; A549; BT-549; COLO 205; DU-145; HOP-62; HT-29; KM12; LOX IMVI; MDA-MB-435; NCI-H522; OVCAR-4; PC-3; SF-268; SF-539; SK-MEL-28; SK-MEL-5; SNB-75; SW-620; T47D.
Experiment in all cases: NCI anticancer screen, dose series, 48 h

From ChEMBL document CHEMBL1201862, “PubChem BioAssay data set” (2004) come the findings set out here.

Each structure is given as a SMILES string.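 Dose response: 5 concentrations. Exposure: 48 h. Format: 96-well plates. Endpoint: linear interpolation; highest concentration if not reached. At the GI50, growth is halved.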 Activity calls are given as the source filed them. Rule as the data show it: active = GI50 up to about 1.1 µM and inactive = higher.

Regarding `O=C1/C(=C\c2ccc([N+](=O)[O-])cc2)CS(=O)(=O)C/C1=C/c1ccc([N+](=O)[O-])cc1`, the GI50 in the test with A498 is 1.79 µM (inactive); with A549, 1.85 µM (inactive); with BT-549 it was 0.316 µM (active); in the test with COLO 205, 0.188 µM (active); with DU-145, 2.92 µM (inactive); in the test on HOP-62, 1.23 µM (inactive). For the same molecule, the GI50 is 0.357 µM (active) in the test on HT-29; 0.327 µM (active) with KM12; 0.597 µM (active) in the test on LOX IMVI; 0.358 µM (active) in the test on MDA-MB-435; 0.277 µM (active) in the test with NCI-H522; 0.342 µM (active) in the test with OVCAR-4. In addition, the GI50 was 0.392 µM (active) in the test with PC-3; 0.773 µM (active) in the test with SF-268; 0.189 µM (active) in the test with SF-539; 1.13 µM (inactive) in the test on SK-MEL-28; 1.4 µM (inactive) in the test on SK-MEL-5; 15.5 µM (inactive) in the test with SNB-75. Besides, the values for the GI50 in the test on SW-620 and with T47D were 0.262 µM (active) and 0.962 µM (active), respectively.

As for `CCn1c2c(n(CC)c1=S)-c1c(n(CC)c(=S)n1CC)SSSS2`, the GI50 was 37.5 µM (inactive) with A498; 36.7 µM (inactive) in the test with A549; 15.4 µM (inactive) with BT-549; 5.53 µM (inactive) with COLO 205; > 100 µM (inactive) in the test on DU-145; > 100 µM (inactive) in the test with HOP-62. In addition, the GI50 with HT-29 was 11.7 µM (inactive); in the test on KM12, 19.2 µM (inactive); in the test on LOX IMVI, 9.79 µM (inactive); with MDA-MB-435, 13.3 µM (inactive); in the test on NCI-H522, 1.88 µM (inactive); with OVCAR-4, 9.53 µM (inactive). Also, the GI50 was > 10 µM (inactive) in the test with PC-3; 21.1 µM (inactive) in the test on SF-268; 12.2 µM (inactive) in the test on SF-539; 7.31 µM (inactive) in the test with SK-MEL-28; 27 µM (inactive) in the test on SK-MEL-5; 1.91 µM (inactive) in the test on SNB-75. The values for the GI50 in the test on SW-620 and with T47D were 1.67 µM (inactive) and 1.63 µM (inactive), respectively.

On to `COc1cccc(-c2cc(O)c3cc(C)cnc3n2)c1`, for which the GI50 was 0.0904 µM (active) in the test with A498; 0.0776 µM (active) in the test with A549; > 100 µM (inactive) in the test with BT-549; 0.0449 µM (active) in the test with COLO 205; 0.308 µM (active) with DU-145; 0.0682 µM (active) in the test with HOP-62. In addition, the GI50 was 0.0318 µM (active) in the test with HT-29; 0.0885 µM (active) in the test on KM12; 0.0512 µM (active) in the test on LOX IMVI; 0.0122 µM (active) in the test with MDA-MB-435; 0.0389 µM (active) in the test on NCI-H522; > 67.1 µM (inactive) in the test with OVCAR-4. For the same molecule, the GI50 was 0.0467 µM (active) in the test with PC-3; 0.594 µM (active) in the test with SF-268; 0.0371 µM (active) with SF-539; 0.0787 µM (active) in the test with SK-MEL-28; 0.0787 µM (active) in the test with SK-MEL-5; 0.0188 µM (active) in the test on SNB-75. The results for the GI50 in the test on SW-620 and in the test with T47D were 0.06 µM (active) and > 100 µM (inactive), respectively.

As for `O=C(O)c1cc2ccccc2c(O)c1O`, the GI50 was 26.9 µM (inactive) in the test with A498; 19.8 µM (inactive) with A549; 16.1 µM (inactive) with BT-549; 16.8 µM (inactive) with COLO 205; 18.3 µM (inactive) in the test on DU-145; 18.9 µM (inactive) with HOP-62. Also, the GI50 with HT-29 is 23.2 µM (inactive); in the test on KM12 it was 16.3 µM (inactive); in the test with LOX IMVI, 3.52 µM (inactive); with MDA-MB-435, 1.85 µM (inactive); with NCI-H522 it was 15.1 µM (inactive); in the test on OVCAR-4, 19 µM (inactive). Further, the GI50 is 12.8 µM (inactive) in the test with PC-3; 17.2 µM (inactive) with SF-268; 22.8 µM (inactive) with SF-539; 7.03 µM (inactive) in the test on SK-MEL-28; 2.92 µM (inactive) in the test on SK-MEL-5; 17.9 µM (inactive) with SNB-75. Further, the results for the GI50 in the test on SW-620 and with T47D were 19.7 µM (inactive) and 25.8 µM (inactive), respectively.

As to `CN(NC(=O)CCCl)C1=NCCCCN1`, the GI50 in the test with A498, in the test with A549, in the test on BT-549, in the test with COLO 205, with DU-145 and in the test on HOP-62 was > 100 µM (inactive) each time. Besides, the GI50 in the test on HT-29, with KM12, in the test with LOX IMVI, in the test on MDA-MB-435, in the test with NCI-H522 and in the test with OVCAR-4 was > 100 µM (inactive) each time. Moreover, the GI50 in the test with PC-3, in the test on SF-268, with SF-539, in the test on SK-MEL-28, in the test with SK-MEL-5 and in the test with SNB-75 was > 100 µM (inactive) each time. The GI50 in the test on SW-620 and with T47D was > 100 µM (inactive) each time.

On to `O=C1C(N2CCCC2)=CC(=O)c2c(O)c(N3CCCC3)c(Cl)c(O)c21`, for which the GI50 in the test on A498, in the test on A549, in the test on BT-549, in the test with COLO 205, in the test on DU-145 and with HOP-62 was > 10 µM (inactive) in each case. Moreover, the GI50 in the test with HT-29, with KM12, in the test with LOX IMVI, in the test on MDA-MB-435, in the test on NCI-H522 and in the test with OVCAR-4 was > 10 µM (inactive) throughout. The GI50 with PC-3, in the test with SF-268, in the test on SF-539, in the test on SK-MEL-28, with SK-MEL-5 and with SNB-75 was > 10 µM (inactive) in each case. Moreover, the GI50 in the test on SW-620 and with T47D was > 10 µM (inactive) throughout.
